Test results taken from the supplement of paper PMC10307832.

How the values were obtained:
Experiment in all cases: relative viability (nuclei count vs DMSO), 5 days (fraction); higher = more cells survive
[1] = compound: Cc1ccc2nc(NCCN)c3ncc(C)n3c2c1 + CC(=O)c1c(C)c2cnc(Nc3ccc(N4CCNCC4)cn3)nc2n(C2CCCC2)c1=O [Palbociclib] (partner 0.5 µM)
Summary of the method: (§1)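 Values are medians from duplicate plates. Each reflects relative viability, defined as the nuclei count of treated wells over that of vehicle wells. Lung cancer cell lines in 1536-well plates were pin-tool dosed one day after seeding with one drug alone or with a fixed anchor-drug dose plus five library-drug doses (not always all listed) in √10 steps, then fixed, stained and imaged at 4× after 5 days.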

[2] = compound: Cc1ccc2nc(NCCN)c3ncc(C)n3c2c1 + CCNC(=O)c1noc(-c2cc(C(C)C)c(O)cc2O)c1-c1ccc(CN2CCOCC2)cc1 [Luminespib] (partner 0.01 µM)
Summary of the method: as §1

[3] = compound: Cc1ccc2nc(NCCN)c3ncc(C)n3c2c1 + NC(=O)Nc1cc(-c2cccc(F)c2)sc1C(=O)N[C@H]1CCCNC1 [AZD7762] (partner 0.2 µM)
Summary of the method: as §1

Salubrinal + Palbociclib = compound: O=C(/C=C/c1ccccc1)NC(NC(=S)Nc1cccc2cccnc12)C(Cl)(Cl)Cl [Salubrinal] + CC(=O)c1c(C)c2cnc(Nc3ccc(N4CCNCC4)cn3)nc2n(C2CCCC2)c1=O [Palbociclib] (partner 0.5 µM)
Summary of the method: as §1

Cell Line | relative viability ([1]; first compound 0.04 µM) | relative viability ([1]; first compound 0.1265 µM) | relative viability ([1]; first compound 0.4 µM) | relative viability ([1]; first compound 1.265 µM) | relative viability ([1]; first compound 4 µM) | relative viability ([2]; first compound 0.04 µM) | relative viability ([2]; first compound 0.1265 µM) | relative viability ([2]; first compound 0.4 µM) | relative viability ([2]; first compound 1.265 µM) | relative viability ([2]; first compound 4 µM) | relative viability ([3]; first compound 0.04 µM) | relative viability ([3]; first compound 0.1265 µM) | relative viability ([3]; first compound 0.4 µM) | relative viability ([3]; first compound 1.265 µM) | relative viability ([3]; first compound 4 µM) | relative viability (Salubrinal + Palbociclib; first compound 0.08 µM) | relative viability (Salubrinal + Palbociclib; first compound 0.253 µM) | relative viability (Salubrinal + Palbociclib; first compound 0.8 µM) | relative viability (Salubrinal + Palbociclib; first compound 2.53 µM) | relative viability (Salubrinal + Palbociclib; first compound 8 µM)
NCI-H522 | 0.83 | 1.17 | 1.01 | 1.04 | 0.87 | 1.26 | 1.12 | 1.04 | 1.14 | 1.17 | 0.754 | 0.778 | 0.634 | 0.843 | 0.765 | 1.1 | 1.21 | 0.956 | 0.94 | 1.13
NCI-H647 | 0.41 | 0.412 | 0.405 | 0.413 | 0.296 | 0.163 | 0.187 | 0.155 | 0.136 | 0.188 | 0.44 | 0.517 | 0.38 | 0.574 | 0.148 | 0.56 | 0.37 | 0.39 | 0.431 | 0.347
NCI-H2170 | 0.388 | 0.445 | 0.356 | 0.381 | 0.342 | 0.637 | 0.699 | 0.516 | 0.855 | 0.64 | 0.874 | 0.897 | 0.821 | 0.761 | 0.845 | 0.436 | 0.326 | 0.447 | 0.395 | 0.372
NCI-H1793 | 0.303 | 0.328 | 0.283 | 0.312 | 0.318 | 0.577 | 0.168 | 0.182 | 0.181 | 0.215 | 0.506 | 0.411 | 0.361 | 0.39 | 0.417 | 0.366 | 0.37 | 0.323 | 0.284 | 0.287
NCI-H2085 | 0.49 | 0.514 | 0.465 | 0.469 | 0.478 | 0.492 | 0.463 | 0.446 | 0.442 | 0.393 | 1.06 | 0.996 | 0.916 | 0.952 | 1 | 0.457 | 0.471 | 0.484 | 0.438 | 0.427
NCI-H727 | 0.648 | – | 0.603 | 0.691 | 0.722 | 0.36 | – | 0.358 | 0.385 | 0.4 | 0.611 | – | 0.609 | 0.595 | 0.573 | 0.672 | 0.585 | 0.656 | 0.605 | 0.691
NCI-H441 | 0.251 | 0.271 | 0.181 | 0.26 | 0.248 | 0.285 | 0.482 | 0.312 | 0.465 | 0.322 | 1.35 | 1.09 | 1.05 | 1.25 | 1.19 | 0.222 | 0.189 | 0.313 | 0.23 | 0.201
LOU-NH91 | 0.551 | 0.509 | 0.52 | 0.542 | 0.464 | 0.342 | 0.31 | 0.31 | 0.36 | 0.318 | 0.869 | 0.789 | 0.753 | 0.702 | 0.733 | 0.6 | 0.565 | 0.521 | 0.556 | 0.569
NCI-H3122 | 0.167 | 0.193 | 0.163 | 0.199 | 0.213 | 0.101 | 0.11 | 0.0776 | 0.0857 | 0.0976 | 1.05 | 1.04 | 0.98 | 0.973 | 1.05 | 0.195 | 0.238 | 0.172 | 0.195 | 0.176
NCI-H460 | 0.114 | 0.152 | 0.147 | 0.204 | 0.0833 | 0.0414 | 0.0267 | 0.0351 | 0.0331 | 0.0182 | 0.614 | 0.636 | 0.631 | 0.7 | 0.541 | 0.202 | 0.158 | 0.184 | 0.145 | 0.105
NCI-H650 | 0.368 | 0.316 | 0.258 | 0.304 | 0.332 | 0.891 | 0.688 | 0.583 | 0.602 | 0.698 | 0.95 | 0.901 | 0.681 | 0.958 | 1.03 | 0.346 | 0.3 | 0.355 | 0.332 | 0.298
NCI-H1734 | 0.319 | 0.367 | 0.369 | 0.319 | 0.254 | 0.217 | 0.251 | 0.197 | 0.184 | 0.176 | 0.573 | 0.596 | 0.517 | 0.559 | 0.546 | 0.393 | 0.334 | 0.392 | 0.344 | 0.343
LXF-289 | 0.605 | 0.648 | 0.604 | 0.638 | 0.556 | 0.633 | 0.816 | 0.653 | 0.706 | 0.618 | 1.19 | 1.1 | 1.08 | 1.06 | 1.12 | 0.678 | 0.478 | 0.633 | 0.578 | 0.578
H3255 | 0.329 | 0.298 | 0.312 | 0.327 | 0.317 | 0.878 | 1.01 | 0.824 | 0.926 | 0.76 | 0.923 | 0.963 | 0.829 | 0.76 | 0.746 | 0.315 | 0.344 | 0.319 | 0.299 | 0.332
201T | 0.396 | 0.367 | 0.33 | 0.363 | 0.323 | 1.1 | 1.05 | 1.06 | 1.12 | 1.07 | 0.639 | 0.569 | 0.66 | 0.598 | 0.618 | 0.355 | 0.332 | 0.413 | 0.351 | 0.374
NCI-H2126 | 0.392 | 0.392 | 0.319 | 0.403 | 0.372 | 0.998 | 0.867 | 0.917 | 0.89 | 0.832 | 1.12 | 1.01 | 0.965 | 1.14 | 0.936 | 0.382 | 0.383 | 0.363 | 0.388 | 0.386
